Tests used:
BIR3 domain of XIAP = BIR3 domain of XIAP (Homo sapiens, UniProt P98170); test: affinity for BIR3 domain of XIAP; format: binding
SKOV3 = test: 72 hr MTS assay, LBW242 with or without Taxol, SKOV3; format: cell-based, human
From the text: (§1) 1. […] MTS Data is generated as described below:
(§2) Selection of IAP Inhibitor Dose Levels

MDA231 = test: 72 hr MTS assay, LBW242 with or without Taxol, MDA231; format: cell-based, human
From the text: as §1, §2

[1] = tested on: tumor cell lines representing lung, ovarian, melanoma, pancreatic cancers; test: 72 hr MTS assay, panels of tumor cell lines (lung, ovarian, melanoma, pancreatic)
Method: To determine whether the spectrum of tumor cell lines which responded to these agents would be wider in combination with the cytotoxic drug Taxol, we subject panels of tumor cell lines representing a number of human cancers to in vitro combination analyses.
MTS Reagent (#G1111; Promega) in PBS, pH 6-6.5. […] Tumor Cell Lines are purchased from ATCC.
Cell proliferation/cell death is analyzed in 72 hr. […] Tumor cell lines are plated at subconfluent densities in 96 well plate format and allowed to adhere for 12-16 hr. Cpds are then added according to the following schemes: i.
Chemotherapeutic agents or cytotoxic cpds (Ctx) are added alone, in an 8-point/10-fold titration scheme from high to low dose, in triplicate. ii. […] Once all dosing is completed, cells are cultured for a further 72 hr. and then assayed using the MTS format:
Plate cells in RPMI/10% FBS Complete medium. […]
Add MTS/PMS reagents to T.0 Plate(s). […] Read OD 490 nm using SoftMax Pro software on a Molecular Devices (Sunnyvale, Calif.) Spectrophotometer. Calculate T.0 values for each cell line to be assayed by generating the mean value of the OD 490 nm readings from each cell line's T.0 wells (6/cell line) and subtracting the mean OD 490 nm values from Blank wells. […]
Add 20 ul mixture to ea. well & incubate plate(s) 2 hr. @ 37° C./5% CO2. Read OD 490 nm using SoftMax Pro software on a Molecular Devices Spectrophotometer. […]

BIR3 domain of CIAP1 = BIR3 domain of CIAP1 (Homo sapiens, UniProt Q13490); test: affinity for BIR3 domain of CIAP1; format: binding
[2] = tested on: ovarian carcinoma line SKOV3; test: anti-proliferative activity of combination with Docetaxel in SKOV3 in vitro; format: cell-based; details: across a dose range
From the text: FIG. 1 indicates anti-proliferative activity of compound of formula (III) alone (bottom row), Docetaxel alone (most leftward column) and combinations of the two agents across a dose range. FIG. 2 is the corresponding isobologram at 70% growth inhibition.

[3] = tested on: orthotopic breast cancer model MDA-MB-231; test: orthotopic breast cancer model MDA-MB-231, anti-tumor activity; format: in vivo; details: in combination with Paclitaxel; established tumors treated for two weeks; compared to either single agent
melanoma cell line A375 = test: three day proliferation assay in A375; format: cell-based
Method: Bottom two curves show Taxol dose response in presence of either 6 μM or 12 μM compound of formula (III).

[4] = criterion: minimum five fold potency shift of Taxol IC50 relative to Taxol alone

Chain of BIR3 domain of CIAP1 (Q13490 253-363 limits assumed): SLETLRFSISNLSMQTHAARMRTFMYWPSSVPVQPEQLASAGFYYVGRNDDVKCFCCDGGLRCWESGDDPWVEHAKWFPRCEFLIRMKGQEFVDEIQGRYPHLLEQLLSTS
Chain of BIR3 domain of XIAP (P98170 241-356 limits assumed): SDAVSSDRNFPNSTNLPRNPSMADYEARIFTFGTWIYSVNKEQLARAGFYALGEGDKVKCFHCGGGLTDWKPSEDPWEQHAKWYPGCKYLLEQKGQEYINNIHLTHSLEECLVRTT

CN[C@@H](C)C(=O)N[C@H](C(=O)N1CCC[C@H]1c1nc(C(=O)c2ccc(F)cc2)cs1)C1CCCCC1 [LCL161] was tested, and the affinity (BIR3 domain of XIAP) was “nM affinity”.

CN[C@@H](C)C(=O)N[C@H](C(=O)N1CC[C@H]2CCN(CCc3ccccc3)C[C@H]21)C1CCCCC1 [LBW242] was tested, and the “combination activity with Taxol” value (SKOV3; [4]) was “exhibit combination activity”, the response to monotherapy (SKOV3; single agent) was “responsive” and the “combination activity with Taxol” value (MDA231; [4]) was “exhibit combination activity”. For the same compound, the response to monotherapy (MDA231; single agent) was “responsive”, the “range of tumor cell lines sensitive in combination with a cytotoxic agent versus as a single agent” value ([1]; in combination with Taxol) was “slightly larger” and the “single agent activity across tumor cell lines” value ([1]; single agent, in vitro) was “single agent activity on a limited number of tumor cell lines”. The affinity (BIR3 domain of CIAP1) was “nM affinity”.

CN[C@@H](C)C(=O)N[C@H](C(=O)N1CC[C@H]2CCN(CCc3ccccc3)C[C@H]21)C1CCCCC1 [compound of formula (III)] was tested, and the “interaction of the combination with Docetaxel (anti-proliferative activity)” value [2] was “significant synergy”, the “anti-tumor activity of the combination with Paclitaxel” value [3] was “superior anti-tumor activity compared to either agent administered as a single agent” and the “anti-proliferative activity of Taxol in combination” value (melanoma cell line A375; Taxol dose response in presence of 6 μM or 12 μM compound of formula (III), A375, three day) was “dramatically enhanced”. For the same compound, the stand alone activity (melanoma cell line A375; single agent, A375 (data not shown)) was “no stand alone activity”.

From US8906936B2, “Pharmaceutical combination comprising co-administration of taxane and N-(1-cyclohexyl-2-{2-[4-(4-fluoro-benzoyl)-thiazol-2-yl]-pyrrolidin-1-yl}-2-oxo-ethyl)-2-methylamino-propionamide or pharmaceutically acceptable salt(s) thereof” (Novartis AG, priority 2005, dated 2014)
